# Test results taken from BindingDB's records for doi:10.1016/j.bmcl.2009.01.098 (Glaxosmithkline, 2009).
# Target: Muscarinic acetylcholine receptor M3 (Homo sapiens, UniProt P20309)
# Assay: Antagonist activity at human recombinant muscarinic M3 receptor expressed in CHO cells assessed as inhibition of acetylcholine-induced calcium mobilization by FLIPR based single concentration kinetic assay
# Chain of Muscarinic acetylcholine receptor M3 (P20309 whole entry): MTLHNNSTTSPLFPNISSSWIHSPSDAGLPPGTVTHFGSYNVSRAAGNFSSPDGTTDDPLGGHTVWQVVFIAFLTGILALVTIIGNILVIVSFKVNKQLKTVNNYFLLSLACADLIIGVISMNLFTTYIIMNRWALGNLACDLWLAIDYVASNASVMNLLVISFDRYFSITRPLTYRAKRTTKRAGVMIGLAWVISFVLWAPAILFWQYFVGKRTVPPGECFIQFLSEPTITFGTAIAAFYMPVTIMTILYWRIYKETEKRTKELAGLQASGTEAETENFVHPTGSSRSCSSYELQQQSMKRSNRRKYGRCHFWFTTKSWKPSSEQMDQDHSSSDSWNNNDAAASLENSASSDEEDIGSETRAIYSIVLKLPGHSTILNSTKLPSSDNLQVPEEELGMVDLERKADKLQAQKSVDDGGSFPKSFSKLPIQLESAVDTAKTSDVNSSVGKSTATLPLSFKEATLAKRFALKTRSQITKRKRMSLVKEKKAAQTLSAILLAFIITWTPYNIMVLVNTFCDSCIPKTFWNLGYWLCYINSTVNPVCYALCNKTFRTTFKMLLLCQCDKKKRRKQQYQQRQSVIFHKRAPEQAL
row,Compound,Kd
1,CC1CN(Cc2cccc(-c3cc(CNC(=O)c4cccc(CN5CCN(C)CC5)c4)ccc3F)c2)CCN1 (stereo not drawn),0.0316 nM
2,CC1CN(Cc2cccc(-c3cc(CNC(=O)c4cccc(CN5CCCN(C)CC5)c4)ccc3F)c2)CCN1 (stereo not drawn),0.251 nM
3,CC1CN(Cc2cccc(-c3cc(CNC(=O)c4cccc(CN(C)CCCN(C)C)c4)ccc3F)c2)CCN1 (stereo not drawn),0.2 nM
4,CC1CN(Cc2cccc(-c3cc(CNC(=O)c4cccc(CN5CCN(C=O)CC5)c4)ccc3F)c2)CCN1 (stereo not drawn),0.0794 nM
5,CC1CN(Cc2cccc(-c3cc(CNC(=O)c4cccc(CN5CCCCC5)c4)ccc3F)c2)CCN1 (stereo not drawn),0.631 nM

# Now from value to compound:
row,Kd,Compound
1,0.0631 nM,CC1CN(Cc2cccc(-c3cc(CNC(=O)c4cccc(CN5CCN(CCCO)CC5)c4)ccc3F)c2)CCN1 (stereo not drawn)
2,0.126 nM,CC1CN(Cc2cccc(-c3cc(CNC(=O)c4cccc(CN5CCOCC5)c4)ccc3F)c2)CCN1 (stereo not drawn)
3,3.16 nM,CC1CN(Cc2cccc(-c3cc(CNC(=O)c4cccc(CN(C)C)c4)ccc3F)c2)CCN1 (stereo not drawn)
